Here are results for two molecules from ChEMBL document CHEMBL3763083, “Sulfasalazine in ionic liquid form with improved solubility and exposure” (Medchemcomm, 2015).

For orientation: Cmax means the maximum level reached in the sampled fluid or tissue. One may read the solubility as the concentration that dissolves in the medium under given conditions. A low value points to a poorly soluble substance. In general, AUC(0-inf) refers to the area under the concentration-time curve extrapolated to infinity. By Tmax is commonly meant the time from dosing to the highest level. As a reminder, the bioavailability is the share of a dose that reaches the circulation, judged against a reference dose that is usually intravenous.

Data set [1] is described as follows: Cmax in rat plasma at 50 mg/kg dosed via oral gavage. It is filed as ADME, organism-based. On the set-up: dose 50 mg/kg, route oral.
Data set [2] in a line: Solubility of compound in stimulated GI fluid at pH 1.1 measured at 15 to 60 mins by LC/MS analysis. It is filed as ADME. To be noted: buffer.
Data set [3] is described as follows: AUC(infinity) in rat at 50 mg/kg dosed via oral gavage. Format: ADME, organism-based. On the set-up: dose 50 mg/kg, route oral, time infinity. Conditions: in vivo.
Data set [4] is described as follows: Solubility of compound in stimulated intestinal fluid at pH 6.8 measured at 0.5 to 3 hrs by LC/MS analysis. Format: ADME. To be noted: simulated gi fluid.
Data set [5] is described as follows: Thermal stability of compound after 30 mins by thermogravimetric analysis. It is filed as physicochemical. Conditions: 0.5 h.
Data set [6] in a line: Solubility of compound in saline solution after 1 hr by LC/MS analysis. To be noted: buffer. It is filed as physicochemical.
In another data set the test system is Liver. Kind of data set: Drug metabolism in rat liver S9 fractions at 1 uM measured at 0 to 60 mins by LC/MS analysis. It is filed as ADME, subcellular, Liver S9 fraction. To be noted: s9, 1 µM.
Data set [7] is described as follows: Tmax in rat plasma at 50 mg/kg dosed via oral gavage. It is filed as ADME, organism-based.
Data set [8] is described as follows: Oral bioavailability in rat plasma at 50 mg/kg dosed via gavage. Format: ADME, organism-based.
The nature of data set [9]: Drug recovery in rat bile at 50 mg/kg dosed via oral gavage. Format: ADME, organism-based. To be noted: read-out: Drug recovery.
Data set [10] in a line: Solubility of compound in methanol after 2 hrs. Format: physicochemical.
Data set [11] in a line: Solubility of compound in phosphate buffer at pH 8 after 1 hr by LC/MS analysis. It is filed as physicochemical. Conditions: pH 8, 1 h.

Converted amounts (≈) assume the structure as drawn.

On to `C[N+](C)(C)CCO.O=C([O-])c1cc(/N=N/c2ccc(S(=O)(=O)Nc3ccccn3)cc2)ccc1O`, for which the concentration in data set [1] peaked (Cmax) at 2360 nM. The solubility result in data set [2] was “soluble”; in [4] it was “soluble”; in data set [6] it was 39320 µg/mL. Moreover, the area under the curve AUC(0-inf) in [3] stood at 9.34 µM·h. This molecule yielded a T in [5] of 214 °C. Also, the Drug metabolism result in the data set with Liver is “metabolite_detected”. Further, the Tmax in data set [7] is 15 min. In data set [8], this molecule yielded a bioavailability of 5.6%. In addition, in [9], the dose excreted stood at 1.8%.

As to `O=C(O)c1cc(/N=N/c2ccc(S(=O)(=O)Nc3ccccn3)cc2)ccc1O` [SULFASALAZINE], the solubility entry in data set [10] is “soluble”; in data set [2], “soluble”; in data set [4], “soluble”; in [6], 10 µg/mL (≈ 0.0251 mM); in data set [11], 3090 µg/mL (≈ 7.76 mM). The molecule further returned a T in data set [5] of 253 °C. In the data set on Liver, the Drug metabolism entry was “metabolite_detected”.
